Assay results: PubChem BioAssay AID330 (DTP/NCI, 2004)
Several values for one entry are separate records, joined by “and”; a condition that tells them apart may be missing. Equal entries are not always repeated. Inconclusive results and toxic doses are left out. Peptide text beside a SMILES is read from it. * marks the point of attachment. Boc = CC(C)(C)OC(=O)*; NHNH2 = NN*

System: P388 leukemia ip, CD2F1 mice, survival T/C
Experiment: NCI In Vivo Anticancer Drug Screen. Data for tumor model P388 Leukemia (intraperitoneal) in CD2F1 (CDF1) mice
Conditions: endpoint: median survival time, higher = longer survival
Method in brief: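 Mice carrying the transplanted tumor received test compound or vehicle. Survival was recorded in each group, and the value is the treated-group measurement divided by that of the vehicle-treated control group.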

[1] = dose: 50.0 mg/kg/injection, schedule: Q01DX005 (ip), vehicle: saline with Tween-80
[2] = dose: 100.0 mg/kg/injection, schedule: Q01DX005 (ip), vehicle: saline with Tween-80
[3] = dose: 200.0 mg/kg/injection, schedule: Q01DX005 (ip), vehicle: saline with Tween-80
[4] = dose: 60.0 mg/kg/injection, schedule: Q01DX005 (ip), vehicle: saline with Tween-80
[5] = dose: 120.0 mg/kg/injection, schedule: Q01DX005 (ip), vehicle: saline with Tween-80
[6] = dose: 240.0 mg/kg/injection, schedule: Q01DX005 (ip), vehicle: saline with Tween-80
[7] = dose: 100.0 mg/kg/injection, schedule: Q01DX009 (ip), vehicle: saline with Tween-80
[8] = dose: 200.0 mg/kg/injection, schedule: Q01DX009 (ip), vehicle: saline with Tween-80
[9] = dose: 50.0 mg/kg/injection, schedule: Q01DX005 (ip), vehicle: Klucel (hydroxypropylcellulose) (HPC)
[10] = dose: 100.0 mg/kg/injection, schedule: Q01DX005 (ip), vehicle: Klucel (hydroxypropylcellulose) (HPC)
[11] = dose: 200.0 mg/kg/injection, schedule: Q01DX005 (ip), vehicle: Klucel (hydroxypropylcellulose) (HPC)
[12] = dose: 6.25 mg/kg/injection, schedule: Q01DX005 (ip), vehicle: Klucel (hydroxypropylcellulose) (HPC)
[13] = dose: 12.5 mg/kg/injection, schedule: Q01DX005 (ip), vehicle: Klucel (hydroxypropylcellulose) (HPC)
[14] = dose: 25.0 mg/kg/injection, schedule: Q01DX005 (ip), vehicle: Klucel (hydroxypropylcellulose) (HPC)
[15] = dose: 50.0 mg/kg/injection, schedule: Q01DX009 (ip), vehicle: saline
[16] = dose: 100.0 mg/kg/injection, schedule: Q01DX009 (ip), vehicle: saline
[17] = dose: 50.0 mg/kg/injection, schedule: Q01DX009 (ip), vehicle: Klucel (hydroxypropylcellulose) (HPC)
[18] = dose: 100.0 mg/kg/injection, schedule: Q01DX009 (ip), vehicle: Klucel (hydroxypropylcellulose) (HPC)
[19] = dose: 200.0 mg/kg/injection, schedule: Q01DX009 (ip), vehicle: Klucel (hydroxypropylcellulose) (HPC)
[20] = dose: 100.0 mg/kg/injection, schedule: Q04DX003 (ip), vehicle: Klucel (hydroxypropylcellulose) (HPC)

## CC(=N/NC(=S)NCCN1CCCCC1)/C(C)=N\NC(=S)NCCN1CCCCC1
dose: 0.78 mg/kg/injection, schedule: Q01DX009 (ip), vehicle: saline
  T/C: 106 % of control
dose: 1.56 mg/kg/injection, schedule: Q01DX009 (ip), vehicle: saline
  T/C: 94 % of control
dose: 3.13 mg/kg/injection, schedule: Q01DX009 (ip), vehicle: saline
  T/C: 97 % of control
dose: 6.25 mg/kg/injection, schedule: Q01DX009 (ip), vehicle: saline
  T/C: 103 % of control
dose: 12.5 mg/kg/injection, schedule: Q04DX003 (ip), vehicle: saline with Tween-80
  T/C: 108 % of control
dose: 25.0 mg/kg/injection, schedule: Q04DX003 (ip), vehicle: saline with Tween-80
  T/C: 101 % of control

## COc1ccc2ccccc2c1Cc1ccc(N(C)C)cc1Cl
[1]
  T/C: 92 % of control
[2]
  T/C: 95 % of control
[3]
  T/C: 90 % of control

## CSC(=N\N=C(/C)c1ccc(Br)cc1)/N=C/N(C)C
[4]
  T/C: 100 % of control
[5]
  T/C: 102 % of control
[6]
  T/C: 102 % of control

## CCCCCc1ccccc1
[7]
  T/C: 106 % of control
[8]
  T/C: 109 % of control

## O=[N+]([O-])c1ccc2c(Cl)c3ccccc3nc2c1
dose: 50.0 mg/kg/injection, schedule: Q01DX009 (ip), vehicle: saline with Tween-80
  T/C: 95 % of control
[7]
  T/C: 103 % of control
[8]
  T/C: 94 % of control

## OCc1nccn1Cc1ccccc1
dose: 50.0 mg/kg/injection, schedule: Q01DX001 (ip), vehicle: saline
  T/C: 115 % of control
dose: 100.0 mg/kg/injection, schedule: Q01DX001 (ip), vehicle: saline
  T/C: 95 % of control

## CC([NH-])CC(C)[NH-].O=[N+]([O-])O.O=[N+]([O-])O.[Pt+2] (configuration not stated)
dose: 25.0 mg/kg/injection, schedule: Q04DX002 (ip), vehicle: saline
  T/C: 159 % of control

## COC(=O)/C=C/N=[N+]=[N-]
[4]
  T/C: 106 % of control
[5]
  T/C: 106 % of control
[6]
  T/C: 106 % of control

## O=C1C=CC2(CCC23C=CC(=O)O3)O1 (configuration not stated)
dose: 10.0 mg/kg/injection, schedule: Q01DX009 (ip), vehicle: Klucel (hydroxypropylcellulose) (HPC)
  T/C: 98 % of control
dose: 20.0 mg/kg/injection, schedule: Q01DX009 (ip), vehicle: Klucel (hydroxypropylcellulose) (HPC)
  T/C: 106 % of control
dose: 40.0 mg/kg/injection, schedule: Q01DX009 (ip), vehicle: Klucel (hydroxypropylcellulose) (HPC)
  T/C: 106 % of control

## C=C(C)C1CC=C(C)/C(=N/NC(=O)c2cccnc2)C1 (configuration not stated)
[9]
  T/C: 116 % of control
[10]
  T/C: 101 % of control
[11]
  T/C: 109 % of control

## Nc1cc2c3c(cccc3c1O)CC2
[12]
  T/C: 99 % of control
[13]
  T/C: 102 % of control
[14]
  T/C: 102 % of control

## COc1ccc(CSC(=S)Nc2ccc(F)c(C)c2)cc1
dose: 50.0 mg/kg/injection, schedule: Q01DX009 (ip), vehicle: suspension in saline
  T/C: 99 % of control
dose: 100.0 mg/kg/injection, schedule: Q01DX009 (ip), vehicle: suspension in saline
  T/C: 99 % of control

## COc1cc2c(c(C(C)(C)C)c1)OC1(O)C2=CC(=O)C=C1C(C)(C)C (configuration not stated)
[12]
  T/C: 120 % of control
[13]
  T/C: 120 % of control
[14]
  T/C: 114 % of control
[9]
  T/C: 110 % of control
[10]
  T/C: 107 % of control

## CC(C)(C)OC(=O)NC(Cc1c[nH]c2ccccc12)C(=O)NC(CS)C(=O)NN (stereo not drawn) (Boc-Trp-Cys-NHNH2; configuration not given here)
dose: 12.5 mg/kg/injection, schedule: Q01DX009 (ip), vehicle: other
  T/C: 90 % of control
dose: 25.0 mg/kg/injection, schedule: Q01DX009 (ip), vehicle: other
  T/C: 94 % of control
dose: 50.0 mg/kg/injection, schedule: Q01DX009 (ip), vehicle: other
  T/C: 88 % of control
dose: 100.0 mg/kg/injection, schedule: Q01DX009 (ip), vehicle: other
  T/C: 98 % of control
dose: 200.0 mg/kg/injection, schedule: Q01DX009 (ip), vehicle: other
  T/C: 94 % of control

## O=C(O)CN(CCN(CC(=O)O)CC(=O)O)CC(=O)O.[O]=[Mo]1[O][Mo](=[O])[O]1
[15]
  T/C: 89 % of control
[16]
  T/C: 90 % of control

## O=c1nc(-c2ccccc2)nc(-c2ccccc2)[nH]1
dose: 100.0 mg/kg/injection, schedule: Q04DX002 (ip), vehicle: saline with Tween-80
  T/C: 93 % of control
dose: 200.0 mg/kg/injection, schedule: Q04DX002 (ip), vehicle: saline with Tween-80
  T/C: 89 % of control
dose: 400.0 mg/kg/injection, schedule: Q04DX002 (ip), vehicle: saline with Tween-80
  T/C: 108 % of control

## CCCCOP(=O)(O)OCCCC.[Th]
dose: 25.0 mg/kg/injection, schedule: Q01DX001 (ip), vehicle: saline with Tween-80
  T/C: 113 % of control
dose: 50.0 mg/kg/injection, schedule: Q01DX001 (ip), vehicle: saline with Tween-80
  T/C: 100 % of control
dose: 100.0 mg/kg/injection, schedule: Q01DX001 (ip), vehicle: saline with Tween-80
  T/C: 102 % of control
dose: 400.0 mg/kg/injection, schedule: Q01DX001 (ip), vehicle: saline with Tween-80
  T/C: 97 % of control

## O=C1c2ccccc2C(=O)c2c1ccc1ccccc21
[1]
  T/C: 99 % of control
[2]
  T/C: 89 % of control

## CC(C)(C)N=C(CCN1CCN(CCC(=NC(C)(C)C)Nc2c(Cl)cccc2Cl)CC1)Nc1c(Cl)cccc1Cl
[17]
  T/C: 96 % of control
[18]
  T/C: 95 % of control
[19]
  T/C: 92 % of control

## O=C(Nc1ncc([N+](=O)[O-])s1)c1cc(Cl)cc(Cl)c1
[13]
  T/C: 104 % of control
[14]
  T/C: 100 % of control
[9]
  T/C: 100 % of control and 101 % of control

## CC(C)OCCCNCC(=O)Nc1ccc(S(=O)(=O)c2ccc(NC(=O)CNCCCOC(C)C)cc2)cc1
[9]
  T/C: 95 % of control
[10]
  T/C: 100 % of control
[11]
  T/C: 100 % of control

## COc1ccccc1/C=C/C(=O)c1ccccc(=O)c1O
[14]
  T/C: 101 % of control
[9]
  T/C: 104 % of control
[10]
  T/C: 100 % of control
[11]
  T/C: 109 % of control

## C=COC(=O)C(Cc1cccs1)NC(=O)OCc1ccccc1 (configuration not stated)
[1]
  T/C: 101 % of control
[2]
  T/C: 96 % of control
[3]
  T/C: 95 % of control

## Cc1nc(N)[nH]c(=O)c1-c1ccc(Cl)cc1
[20]
  T/C: 106 % of control
dose: 200.0 mg/kg/injection, schedule: Q04DX003 (ip), vehicle: Klucel (hydroxypropylcellulose) (HPC)
  T/C: 105 % of control
dose: 400.0 mg/kg/injection, schedule: Q04DX003 (ip), vehicle: Klucel (hydroxypropylcellulose) (HPC)
  T/C: 99 % of control

## O=[N+]([O-])c1ccccc1S(=O)NCc1c(Cl)cccc1Cl (configuration not stated)
[4]
  T/C: 100 % of control
[5]
  T/C: 90 % of control
[6]
  T/C: 100 % of control

## CCC(=O)NS(=O)(=O)c1cccnc1Nc1c(Cl)cccc1Cl
[15]
  T/C: 96 % of control
[16]
  T/C: 96 % of control
dose: 200.0 mg/kg/injection, schedule: Q01DX009 (ip), vehicle: saline
  T/C: 100 % of control

## CN(C)c1ccc(/C=C/c2ccc3c(c2)OCO3)cc1
[17]
  T/C: 98 % of control
[18]
  T/C: 95 % of control
[19]
  T/C: 98 % of control

## Cc1c2c(n(C)c1C)C(=O)C=CC2=O
dose: 50.0 mg/kg/injection, schedule: Q01DX001 (ip), vehicle: Klucel (hydroxypropylcellulose) (HPC)
  T/C: 100 % of control
dose: 100.0 mg/kg/injection, schedule: Q01DX001 (ip), vehicle: Klucel (hydroxypropylcellulose) (HPC)
  T/C: 113 % of control

## c1ccc(-[n+]2ccc(-c3cc[n+](-c4ccccc4)cc3)cc2)cc1
dose: 100.0 mg/kg/injection, schedule: Q04DX002 (ip), vehicle: Klucel (hydroxypropylcellulose) (HPC)
  T/C: 97 % of control

## S=C(NNc1nnc(-c2ccccc2)c(-c2ccccc2)n1)Nc1ccccc1
dose: 12.5 mg/kg/injection, schedule: Q01DX005 (ip), vehicle: saline with Tween-80
  T/C: 106 % of control
dose: 25.0 mg/kg/injection, schedule: Q01DX005 (ip), vehicle: saline with Tween-80
  T/C: 97 % of control
[1]
  T/C: 90 % of control and 93 % of control

## O=C1C=CC2(CCCCC2)CC1
dose: 25.0 mg/kg/injection, schedule: Q04DX003 (ip), vehicle: Klucel (hydroxypropylcellulose) (HPC)
  T/C: 97 % of control
dose: 50.0 mg/kg/injection, schedule: Q04DX003 (ip), vehicle: Klucel (hydroxypropylcellulose) (HPC)
  T/C: 97 % of control
[20]
  T/C: 95 % of control
